In PubChem BioAssay AID200 (DTP/NCI, 2004):
Where “and” joins values, the source holds several entries; their conditions need not be identical. Equal values may be shown once. Toxic doses and inconclusive results are not listed.

Tested on: B6C3F1 mice, B16 melanoma ip, median survival T/C
Experiment: NCI In Vivo Anticancer Drug Screen. Data for tumor model B16 Melanoma (intraperitoneal) in B6C3F1 mice
Conditions: endpoint: median survival time, higher = longer survival
In short: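 Transplantable tumor in mice; treated vs vehicle control groups; survival or tumor size measured; value = T/C ratio.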

[1] = dose: 12.5 mg/kg/injection, schedule: Q01DX001 (ip), vehicle: distilled water + Tween-80
[2] = dose: 25.0 mg/kg/injection, schedule: Q01DX009 (ip), vehicle: Klucel (hydroxypropylcellulose) (HPC)
[3] = dose: 50.0 mg/kg/injection, schedule: Q01DX009 (ip), vehicle: Klucel (hydroxypropylcellulose) (HPC)
[4] = dose: 100.0 mg/kg/injection, schedule: Q01DX009 (ip), vehicle: Klucel (hydroxypropylcellulose) (HPC)

CC(=O)OCC1C(=O)OCC1C(=O)N1Cc2cc3ccccc3nc2C1 (stereo not given)
T/C (dose: 8.0 mg/kg/injection, schedule: Q01DX009 (ip), vehicle: saline with Tween-80): 115 % of control | T/C (dose: 16.0 mg/kg/injection, schedule: Q01DX009 (ip), vehicle: saline with Tween-80): 95 % of control | T/C (dose: 32.0 mg/kg/injection, schedule: Q01DX009 (ip), vehicle: saline with Tween-80): 100 % of control | T/C (dose: 64.0 mg/kg/injection, schedule: Q01DX009 (ip), vehicle: saline with Tween-80): 91 % of control | T/C (dose: 128.0 mg/kg/injection, schedule: Q01DX009 (ip), vehicle: saline with Tween-80): 88 % of control

N#Cc1c(N)[nH]c2ccc(Sc3ccccc3)cc12
T/C (dose: 6.25 mg/kg/injection, schedule: Q01DX009 (ip), vehicle: saline with Tween-80): 110 % of control | T/C (dose: 12.5 mg/kg/injection, schedule: Q01DX009 (ip), vehicle: saline with Tween-80): 94 % of control | T/C (dose: 25.0 mg/kg/injection, schedule: Q01DX009 (ip), vehicle: saline with Tween-80): 99 % of control | T/C (dose: 50.0 mg/kg/injection, schedule: Q01DX009 (ip), vehicle: saline with Tween-80): 107 % of control

CNC(=O)/C=C/C1=CN2C(=O)c3ccc(C)c(O)c3NC(OC)C2C1 (stereo not given)
T/C (dose: 0.01 mg/kg/injection, schedule: Q01DX009 (ip), vehicle: saline): 109 % of control and 106 % of control | T/C (dose: 0.02 mg/kg/injection, schedule: Q01DX009 (ip), vehicle: saline): 109 % of control | T/C (dose: 0.03 mg/kg/injection, schedule: Q01DX009 (ip), vehicle: saline): 115 % of control | T/C (dose: 0.05 mg/kg/injection, schedule: Q01DX009 (ip), vehicle: saline): 113 % of control and 116 % of control | T/C (dose: 0.05 mg/kg/injection, schedule: Q01DX009 (ip), vehicle: suspension in saline): 98 % of control | T/C (dose: 0.1 mg/kg/injection, schedule: Q01DX009 (ip), vehicle: saline): 117 % of control and 98 % of control | T/C (dose: 0.1 mg/kg/injection, schedule: Q01DX009 (ip), vehicle: suspension in saline): 97 % of control | T/C (dose: 0.2 mg/kg/injection, schedule: Q01DX009 (ip), vehicle: saline): 119 % of control

COc1cccc2c1C(=O)c1c(O)c3c(c(O)c1C2=O)C[C@@](O)(C(C)=O)C[C@@H]3OC1CC(N(C)Cc2ccccc2)C(O)C(C)O1 (stereo not given in full)
T/C (dose: 3.13 mg/kg/injection, schedule: Q01DX001 (ip), vehicle: distilled water + Tween-80): 114 % of control | T/C [1]: 122 % of control

CCCC(NC(=O)OCc1ccccc1)C(=O)NC(C)C(=O)O (stereo not given)
T/C [2]: 101 % of control | T/C [3]: 104 % of control | T/C [4]: 102 % of control

COc1cccc(Sc2ccc([N+](=O)[O-])c3no[n+]([O-])c23)c1
T/C (dose: 1.85 mg/kg/injection, schedule: Q01DX009 (ip), vehicle: saline with Tween-80): 111 % of control and 93 % of control | T/C (dose: 3.75 mg/kg/injection, schedule: Q01DX009 (ip), vehicle: saline with Tween-80): 94 % of control and 101 % of control | T/C (dose: 7.5 mg/kg/injection, schedule: Q01DX009 (ip), vehicle: saline with Tween-80): 92 % of control and 99 % of control | T/C (dose: 15.0 mg/kg/injection, schedule: Q01DX009 (ip), vehicle: saline with Tween-80): 88 % of control and 91 % of control | T/C (dose: 30.0 mg/kg/injection, schedule: Q01DX009 (ip), vehicle: saline with Tween-80): 88 % of control and 89 % of control and 95 % of control | T/C (dose: 60.0 mg/kg/injection, schedule: Q01DX009 (ip), vehicle: saline with Tween-80): 91 % of control

CCC1=C[C@H]2CN(CCc3c([nH]c4ccccc34)[C@@](OC(C)=O)(c3cc4c(cc3OC)N(C)[C@H]3[C@@](O)(C(=O)NCCSc5ccccc5)[C@H](O)[C@]5(CC)C=CCN6CC[C@]43[C@@H]65)C2)C1
T/C (dose: 0.25 mg/kg/injection, schedule: Q01DX009 (ip), vehicle: water): 107 % of control | T/C (dose: 1.0 mg/kg/injection, schedule: Q01DX009 (ip), vehicle: water): 118 % of control | T/C (dose: 2.0 mg/kg/injection, schedule: Q01DX009 (ip), vehicle: water): 124 % of control

COc1cccc2c1C(=O)c1c(O)c3c(c(O)c1C2=O)C[C@@](O)(C(=O)CO)C[C@@H]3OC1CC(OC(C)=O)C(OC(C)=O)C(C)O1 (stereo not given in full)
T/C (dose: 6.25 mg/kg/injection, schedule: Q01DX009 (ip), vehicle: distilled water + Tween-80): 178 % of control | T/C [1]: 150 % of control | T/C (dose: 25.0 mg/kg/injection, schedule: Q01DX001 (ip), vehicle: distilled water + Tween-80): 159 % of control and 195 % of control | T/C (dose: 50.0 mg/kg/injection, schedule: Q01DX001 (ip), vehicle: distilled water + Tween-80): 176 % of control and 202 % of control

O=C(NNC(=O)c1cccc(C(=O)NNC(=O)c2ccc(Cl)c(Cl)c2)n1)c1ccc(Cl)c(Cl)c1
T/C (dose: 12.5 mg/kg/injection, schedule: Q01DX009 (ip), vehicle: Klucel (hydroxypropylcellulose) (HPC)): 94 % of control and 105 % of control | T/C [2]: 102 % of control | T/C [3]: 91 % of control and 102 % of control | T/C [4]: 94 % of control and 103 % of control | T/C (dose: 200.0 mg/kg/injection, schedule: Q01DX009 (ip), vehicle: Klucel (hydroxypropylcellulose) (HPC)): 105 % of control

CC1OC(O[C@H]2C[C@](O)(C(C)O)Cc3c(O)c4c(c(O)c32)C(=O)c2c(O)cccc2C4=O)CC(NC=O)C1O (stereo not given in full)
T/C (dose: 0.62 mg/kg/injection, schedule: Q01DX001 (ip), vehicle: water): 158 % of control | T/C (dose: 1.25 mg/kg/injection, schedule: Q01DX001 (ip), vehicle: water): 185 % of control | T/C (dose: 2.5 mg/kg/injection, schedule: Q01DX001 (ip), vehicle: distilled water + Tween-80): 288 % of control | T/C (dose: 2.5 mg/kg/injection, schedule: Q01DX001 (ip), vehicle: water): 257 % of control | T/C (dose: 5.0 mg/kg/injection, schedule: Q01DX001 (ip), vehicle: water): 170 % of control
